What all share (type): cell-based
Assay [1] concerns Escherichia coli (ATCC 8739). To be noted: for MBC Escherichia coli: ATCC 8739, 3 h. From the text:
(§1) The following pathogenic bacterial strains were used: The Gram-positive Enterococcus faecalis (ATCC 29212), Staphylococcus aureus (HNCMO112011), Listeria monocytogenes (ATCC 19111) and the Gram-negative Pseudomonas aeruginosa (ATCC 27853), Escherichia coli (ATCC 8739), Salmonella enterica (ATCC 13076), Klebsiella pneumoniae (NCTC 13440), Acinetobacter baumannii (ATCC 17978) obtained from the ATCC (United States) and NCTC (National Collection of Type Cultures–England). For the antifungal experiment the Candida albicans W01 strain ([Ördögh et al., 2014]) was used. Antimicrobial activities of peptides against ∼10^7 log phase bacteria were tested in Potassium-Phosphate Buffer (PPB, pH 7.4) as described by [Jenei et al. (2020)] while anti-Candida assays were done according to [Szerencsés et al. (2021)]. The two-fold dilution series of peptides ranged from 25 μM to 0.125 μM, while that of the antibiotics ampicillin (Merck) and miconazole (Duchefa Biochemie) from […] to 0.1 μM. The lowest concentration of the antimicrobial agents, which completely eliminated viable bacteria or C. albicans were considered as the minimal bactericidal concentration (MBC) and minimal fungicidal concentration (MFC).
(§2) The minimal bactericidal concentrations (MBCs) were determined after 3 h of treatment of ∼10^7 log phase bacteria with 2-fold serial dilution of peptides from 25 µM to 0.8 µM. Only 25 of the 50 cationic M. truncatula peptides had activity at ≤25 µM (Supplementary Table S1). […] Three peptides were only active against two bacterial strains; NCR649 against L. monocytogenes and A. baumannii, NCR281 against L. monocytogenes and P. aeruginosa and NCR350 against A. baumannii and P. aeruginosa. […] None of the anionic NCR peptides affected the survival of the tested bacterial strains.

Assay [2] deals with Pseudomonas aeruginosa (ATCC 27853).
From the text: as §1, §2

Assay [3] has as its system E. coli, S. enteritidis, P. aeruginosa, L. monocytogenes, S. aureus, E. faecalis, K. pneumoniae and A. baumannii. Nature of the assay: Antimicrobial activity assay, spectrum over the eight tested pathogenic bacteria. Particulars: 3 h treatment of ~10^7 log phase bacteria, peptides 25 to 0.8 µM; active = MBC ≤25 µM.
From the text: as §1
We investigated the antimicrobial activity of 78 NCR peptides from M. truncatula and 12 NCRs from other IRLC legumes as well as their shorter derivatives against E. coli, S. enteritidis, P. aeruginosa, L. monocytogenes, S. aureus, E. faecalis, K. pneumoniae and A. baumannii (Supplementary Table S1). In the selection of the M. truncatula peptides, we considered their symbiotic expression levels but also their physicochemical properties. The antimicrobial activity of NCRs has so far been attributed to cationic peptides, with the exception of one anionic peptide. To investigate whether other anionic NCRs are antimicrobial, in addition to the cationic peptides, neutral and anionic NCRs were also included covering a broad range of peptides with different net charges (NC: from 7.8 to −10.2) and isoelectric points (pI: from 10.69 to 2.95). 50 peptides had positive net charge and pI > 7.0, while 28 peptides had negative net charge and pI < 7.0 (Supplementary Table S1A). Of the other legumes, only cationic NCR peptides were studied (Supplementary Table S1B).
as §2

Assay [4] relates to Listeria monocytogenes (ATCC 19111). To be noted: ATCC 19111, 3 h.
From the text: as §1, §2

Data on ten compounds can be found in article PMC9218685, “Legume Plant Peptides as Sources of Novel Antimicrobial Molecules Against Human Pathogens” (Frontiers in Molecular Biosciences, 2022).

≈ marks a conversion by molar mass, not a printed value. Ends that are not written are not given here. Peptide text beside a SMILES is read from it.

For `CC(C)[C@H](NC(=O)[C@H](CS)NC(=O)[C@@H](N)CCCCN)C(=O)N[C@@H](Cc1ccc(O)cc1)C(=O)N[C@H](C(=O)N1CCC[C@H]1C(=O)N[C@@H](CCCCN)C(=O)N[C@@H](CCCNC(=N)N)C(N)=O)[C@@H](C)O` [GoNCR308 (23-30)] (H-KCVYTPKR-NH2), the “MBC Escherichia coli” value in assay [1] was 50 µM (≈ 49.7 µg/mL).
`CC[C@H](C)[C@H](NC(=O)[C@H](CCCCN)NC(=O)[C@H](CC(=O)O)NC(=O)[C@@H]1CCCN1C(=O)[C@@H](N)Cc1ccccc1)C(=O)N[C@@H](Cc1ccccc1)C(=O)N[C@@H](Cc1ccccc1)C(=O)NCC(=O)N[C@@H](CC(=O)O)C(=O)N[C@@H](CS)C(=O)N[C@@H](CCC(N)=O)C(=O)N[C@H](C(=O)N[C@@H](CC(=O)O)C(=O)N[C@@H](CCCCN)C(=O)N[C@@H](CC(=O)O)C(=O)N[C@@H](CS)C(=O)N[C@@H](CCCCN)C(=O)N1CCC[C@H]1C(=O)N[C@@H](CCCCN)C(=O)N[C@@H](CCCNC(=N)N)C(=O)NCC(=O)N[C@H](C(=O)N[C@@H](CC(N)=O)C(=O)N[C@@H](Cc1ccccc1)C(=O)N[C@@H](CCCNC(=N)N)C(=O)N[C@@H](CS)C(=O)N[C@@H](CCCNC(=N)N)C(=O)N[C@@H](CCCCN)C(=O)NCC(=O)N[C@@H](CCCCN)C(=O)N[C@@H](CS)C(=O)N[C@@H](Cc1ccccc1)C(=O)N1CCC[C@H]1C(=O)N[C@H](C(=O)N[C@@H](CCCNC(=N)N)C(=O)O)C(C)C)C(C)C)[C@@H](C)O` [MsNCR463] (H-FPDKIFFGDCQTDKDCKPKRGVNFRCRKGKCFPVR-OH; N-terminus assumed): the “Effective concentration (MBC) against P. aeruginosa” value in assay [2] (3 h, ~10^7 log phase bacteria) was found to be 25 µM. Besides, the “Antibacterial spectrum over the eight tested bacterial strains” value in assay [3] was “only effective against P. aeruginosa”.
Consider `CC[C@H](C)[C@H](NC(=O)[C@@H]1CCCN1C(=O)[C@H](CO)NC(=O)[C@@H](N)CO)C(=O)N[C@@H](CCCNC(=N)N)C(=O)N[C@H](C(=O)N[C@H](C(=O)N[C@@H](CC(=O)O)C(=O)N[C@H](C(=O)N[C@@H](CO)C(=O)N[C@@H](CCCNC(=N)N)C(=O)N1CCC[C@H]1C(=O)N[C@@H](CS)C(=O)N[C@H](C(=O)N[C@H](C(=O)N[C@@H](CC(=O)O)C(=O)N[C@@H](CCCCN)C(=O)N[C@@H](CC(=O)O)C(=O)N[C@@H](CS)C(=O)N[C@@H](CO)C(=O)N[C@@H](CCCCN)C(=O)N[C@H](C(=O)N[C@@H](CCC(=O)O)C(=O)N[C@@H](Cc1ccc(O)cc1)C(=O)NCC(=O)N[C@@H](Cc1ccc(O)cc1)C(=O)N[C@@H](CCCCN)C(=O)N[C@@H](CC(C)C)C(=O)N[C@@H](CCCNC(=N)N)C(=O)N[C@@H](CS)C(=O)N[C@@H](CCCNC(=N)N)C(=O)N[C@@H](CCCCN)C(=O)NCC(=O)N[C@@H](CCCNC(=N)N)C(=O)N[C@@H](CS)C(=O)N[C@H](C(=O)N[C@@H](Cc1c[nH]cn1)C(=O)N[C@H](C(=O)N1CCC[C@H]1C(=O)N[C@@H](CCCNC(=N)N)C(=O)O)[C@@H](C)CC)C(C)C)C(C)C)[C@@H](C)O)[C@@H](C)O)C(C)C)[C@@H](C)O)C(C)C` [NCR533] (H-SSPIRVTDVSRPCTTDKDCSKVEYGYKLRCRKGRCVHIPR-OH; N-terminus assumed), for which, in assay [1], the “MBC Escherichia coli” value was 25 µM (≈ 115 µg/mL).
Regarding `CC[C@H](C)[C@H](NC(=O)[C@@H]1CCCN1C(=O)[C@@H]1CCCN1C(=O)[C@@H](NC(=O)[C@H](CS)NC(=O)[C@@H](NC(=O)CNC(=O)[C@H](CCCCN)NC(=O)[C@H](CCCNC(=N)N)NC(=O)[C@H](CS)NC(=O)[C@H](CCCNC(=N)N)NC(=O)[C@H](Cc1ccccc1)NC(=O)[C@H](CC(N)=O)NC(=O)[C@H](C)NC(=O)CNC(=O)[C@H](Cc1ccc(O)cc1)NC(=O)[C@H](CC(C)C)NC(=O)[C@H](CCCCN)NC(=O)[C@@H]1CCCN1C(=O)[C@H](CS)NC(=O)[C@H](CC(=O)O)NC(=O)[C@H](CCCCN)NC(=O)[C@H](CC(=O)O)NC(=O)[C@H](CCCNC(=N)N)NC(=O)[C@H](CCCCN)NC(=O)[C@H](CS)NC(=O)[C@H](CO)NC(=O)[C@H](CO)NC(=O)[C@@H](NC(=O)[C@H](Cc1ccccc1)NC(=O)[C@@H](NC(=O)CNC(=O)[C@H](CC(C)C)NC(=O)[C@@H](N)Cc1ccccc1)[C@@H](C)O)[C@@H](C)CC)[C@@H](C)O)C(C)C)C(=O)O` [NCR035] (H-FLGTFISSCKRDKDCPKLYGANFRCRKGTCVPPI-OH; N-terminus assumed), in assay [1] (3 h, ~10^7 log phase bacteria, peptides ≤25 µM), the “Activity against E. coli” value is “only effective”. For the same compound, in assay [1], the “MBC Escherichia coli” value amounted to 12.5 µM (≈ 47.8 µg/mL).
For the compound `CC[C@H](C)[C@H](NC(=O)[C@H](CCSC)NC(=O)[C@H](CCCNC(=N)N)NC(=O)[C@H](CCCNC(=N)N)NC(=O)CNC(=O)[C@@H]1CCCN1C(=O)[C@H](CC(C)C)NC(=O)[C@H](CS)NC(=O)[C@H](Cc1ccc(O)cc1)NC(=O)[C@H](CCCCN)NC(=O)[C@@H](NC(=O)[C@@H]1CCCN1C(=O)[C@H](CO)NC(=O)[C@H](CS)NC(=O)[C@H](CC(=O)O)NC(=O)[C@H](CO)NC(=O)[C@@H](NC(=O)[C@H](CCCCN)NC(=O)[C@@H](NC(=O)[C@H](CS)NC(=O)[C@H](CCC(=O)O)NC(=O)[C@H](CC(=O)O)NC(=O)[C@@H](N)CO)C(C)C)C(C)C)[C@@H](C)O)C(=O)N[C@@H](CS)C(=O)N[C@@H](CO)C(=O)N[C@@H](CCCCN)C(=O)NCC(=O)N[C@@H](CCCCN)C(=O)N[C@@H](CS)C(=O)N[C@@H](CCCCN)C(=O)N[C@@H](CS)C(=O)N[C@@H](CC(C)C)C(=O)N[C@@H](CCCNC(=N)N)C(=O)N[C@@H](CC(N)=O)C(=O)N[C@@H](CCSC)C(=O)N[C@@H](Cc1ccccc1)C(=O)N[C@H](C(=O)N1CCC[C@H]1C(=O)N[C@H](C(=O)N1CCC[C@H]1C(=O)O)[C@@H](C)CC)[C@@H](C)CC` [NCR135] (H-SDECVKVSDCSPTKYCLPGRRMICSKGKCKCLRNMFIPIP-OH; N-terminus assumed), the “Antibacterial spectrum over the eight tested bacterial strains” value in assay [3] was “against three strains”.
Regarding “MKNGCKHTGHCPRKMCGAKTTKCRNNKCQCV [NCR192]”, the “Antibacterial spectrum over the eight tested bacterial strains” value in assay [3] is on record as “all active, with the exception of NCR192”.
For `CSCC[C@H](NC(=O)[C@H](CCCNC(=N)N)NC(=O)[C@@H](NC(=O)[C@H](Cc1c[nH]c2ccccc12)NC(=O)[C@H](CCCNC(=N)N)NC(=O)[C@H](CS)NC(=O)[C@H](CCC(=O)O)NC(=O)CNC(=O)[C@H](CCCCN)NC(=O)[C@@H](NC(=O)[C@H](CS)NC(=O)[C@H](CCCCN)NC(=O)[C@H](Cc1ccccc1)NC(=O)[C@H](CCCNC(=N)N)NC(=O)[C@H](CCCCN)NC(=O)[C@@H](NC(=O)[C@H](CCCNC(=N)N)NC(=O)[C@@H](NC(=O)[C@H](CO)NC(=O)[C@@H]1CCCN1C(=O)[C@@H]1CCCN1C(=O)[C@H](CS)NC(=O)[C@H](CC(=O)O)NC(=O)[C@H](C)NC(=O)[C@H](CC(=O)O)NC(=O)[C@@H](NC(=O)[C@H](CCC(=O)O)NC(=O)[C@H](CS)NC(=O)[C@H](CC(N)=O)NC(=O)[C@@H](NC(=O)[C@@H](N)Cc1ccc(O)cc1)C(C)C)[C@@H](C)O)[C@@H](C)O)C(C)C)C(C)C)[C@@H](C)O)C(=O)N[C@@H](CO)C(=O)N[C@@H](Cc1ccc(O)cc1)C(=O)N[C@@H](C)C(=O)O` [NCR086] (H-YVNCETDADCPPSTRVKRFKCVKGECRWTRMSYA-OH; N-terminus assumed), the “MBC Listeria monocytogenes” value in assay [4] is on record as 25 µM (≈ 100 µg/mL).
For `CC(C)C[C@H](NC(=O)[C@H](CCCCN)NC(=O)[C@H](CC(C)C)NC(=O)[C@H](CS)NC(=O)[C@H](CCCCN)NC(=O)CNC(=O)[C@@H](N)Cc1ccccc1)C(=O)N[C@@H](CCCCN)C(N)=O` [GoNCR308 (16-23)] (H-FGKCLKLK-NH2), the “MBC Escherichia coli” value in assay [1] is reported as 25 µM (≈ 23.4 µg/mL). The “MBC Pseudomonas aeruginosa” value in assay [2] (ATCC 27853, 3 h) was found to be 25 µM (≈ 23.4 µg/mL).
Regarding “AYYECSNDSACQATTKCVLPRVPRCIKYKCLCGNSNGSGNRWSTRPNRIQKGSTESNYF-OH (cysteines drawn unpaired) [NCR384]”, the “Antibacterial spectrum over the eight tested bacterial strains” value in assay [3] is “able to kill all tested bacteria except E. faecalis and K. pneumoniae”.
Regarding “KCYQDSDCPKDMCSFLFKPKCIFTRYFPIYLGGICGCDRKTCP-OH (cysteines drawn unpaired) [NCR645]”, the “Antibacterial spectrum over the eight tested bacterial strains” value in assay [3] is “kill all bacteria except E. faecalis”.
